Source: patent US5041567A, “Antibacterial monic acid derivatives” (Beecham Group plc, priority 1982, dated 1991)
≈ marks a conversion by molar mass, not a printed value.

Assays:
[1] = test system: M. suipneumoniae J2206/183^b; assay: MIC against mycoplasma in vitro; assay type: cell-based; details: M. suipneumoniae J2206/183^b; 6 days, 37° C.
[2] = test system: Strep. agalactiae 2788-B; assay: MIC against human bacteria in vitro; assay type: cell-based; details: Strep. agalactiae 2788-B; 5% chocolated horse blood agar, 18 hours
[3] = test system: P. mirabilis 889; assay: MIC against human bacteria in vitro; assay type: cell-based; details: P. mirabilis 889; 5% chocolated horse blood agar, 18 hours
[4] = test system: Staph. aureus B4 (pen. resistant); assay: MIC against veterinary bacteria in vitro; details: Staph. aureus B4 (pen. resistant); Diagnostic Sensitivity Test Agar, 18 hours
Experimental: (§1) The activity of the compounds of the Examples against various veterinarily important bacteria, was assayed in vitro using two-fold serial dilutions in Diagnostic Sensitivity Test Agar inoculated with 10^4 organisms.

[5] = test system: E. coli ESS; assay: MIC against human bacteria in vitro; assay type: cell-based; details: E. coli ESS; 5% chocolated horse blood agar, 18 hours
[6] = test system: Corynebacterium pyogenes CY1; assay: MIC against veterinary bacteria in vitro; details: Corynebacterium pyogenes CY1; Diagnostic Sensitivity Test Agar, 18 hours
Experimental: as §1

[7] = test system: Corynebacterium xerosis 9755; assay: MIC against human bacteria in vitro; assay type: cell-based; details: Corynebacterium xerosis 9755; 5% chocolated horse blood agar, 18 hours
[8] = test system: Staph. aureus W2827; assay: MIC against human bacteria in vitro; assay type: cell-based; details: Staph. aureus W2827; 5% chocolated horse blood agar, 18 hours
[9] = test system: Past. multocida PA1; assay: MIC against veterinary bacteria in vitro; details: Past. multocida PA1; Diagnostic Sensitivity Test Agar, 18 hours
Experimental: as §1

[10] = test system: M. suipneumoniae TAM 6N; assay: MIC against mycoplasma in vitro; assay type: cell-based; details: M. suipneumoniae TAM 6N; 6 days, 37° C.
[11] = test system: Staph. aureus Oxford; assay: MIC against human bacteria in vitro; assay type: cell-based; details: Staph. aureus Oxford; 5% chocolated horse blood agar, 18 hours
[12] = test system: Strep. uberis SPU1; assay: MIC against veterinary bacteria in vitro; details: Strep. uberis SPU1; Diagnostic Sensitivity Test Agar, 18 hours
Experimental: as §1

[13] = test system: Haemophilus influenzae Wy21; assay: MIC against human bacteria in vitro; assay type: cell-based; details: Haemophilus influenzae Wy21; 5% chocolated horse blood agar, 18 hours
[14] = test system: M. suipneumoniae NB12; assay: MIC against mycoplasma in vitro; assay type: cell-based; details: M. suipneumoniae NB12; Friis broth, 0.9% agarose, 6 days, 37° C.
[15] = test system: M. suipneumoniae Str. 11; assay: MIC against mycoplasma in vitro; assay type: cell-based; details: M. suipneumoniae Str. 11; 6 days, 37° C.
[16] = test system: M. suipneumoniae ATCC 25095; assay: MIC against mycoplasma in vitro; assay type: cell-based; details: M. suipneumoniae ATCC 25095; 6 days, 37° C.
[17] = test system: Pasteurella multocida 1633; assay: MIC against human bacteria in vitro; assay type: cell-based; details: Pasteurella multocida 1633; 5% chocolated horse blood agar, 18 hours
[18] = test system: K. aerogenes A; assay: MIC against human bacteria in vitro; assay type: cell-based; details: K. aerogenes A; 5% chocolated horse blood agar, 18 hours
[19] = test system: Strep. faecalis I; assay: MIC against human bacteria in vitro; assay type: cell-based; details: Strep. faecalis I; 5% chocolated horse blood agar, 18 hours
[20] = test system: Staph. aureus Russell; assay: MIC against human bacteria in vitro; assay type: cell-based; details: Staph. aureus Russell; 5% chocolated horse blood agar, 18 hours
[21] = test system: Strep. agalactiae SPA1; assay: MIC against veterinary bacteria in vitro; details: Strep. agalactiae SPA1; Diagnostic Sensitivity Test Agar, 18 hours
Experimental: as §1

[22] = test system: Strep. spp. 64/848-C; assay: MIC against human bacteria in vitro; assay type: cell-based; details: Strep. spp. 64/848-C; 5% chocolated horse blood agar, 18 hours
[23] = test system: Neisseria catarrhalis 1502; assay: MIC against human bacteria in vitro; assay type: cell-based; details: Neisseria catarrhalis 1502; 5% chocolated horse blood agar, 18 hours
[24] = test system: M. bovigenitalium ATCC 14173; assay: MIC against mycoplasma in vitro; assay type: cell-based; details: M. bovigenitalium ATCC 14173; 6 days, 37° C.
[25] = test system: Ps. aeruginosa NCTC 10662; assay: MIC against human bacteria in vitro; assay type: cell-based; details: Ps. aeruginosa NCTC 10662; 5% chocolated horse blood agar, 18 hours
[26] = test system: S. dublin S7; assay: MIC against veterinary bacteria in vitro; details: S. dublin S7; Diagnostic Sensitivity Test Agar, 18 hours
Experimental: as §1

[27] = test system: M. suipneumoniae JF 435; assay: MIC against mycoplasma in vitro; assay type: cell-based; details: M. suipneumoniae JF 435; 6 days, 37° C.
[28] = test system: Strep. pyogenes R80/421-A; assay: MIC against human bacteria in vitro; assay type: cell-based; details: Strep. pyogenes R80/421-A; 5% chocolated horse blood agar, 18 hours
[29] = test system: M. hyosynoviae ATCC 25591; assay: MIC against mycoplasma in vitro; assay type: cell-based; details: M. hyosynoviae ATCC 25591; 6 days, 37° C.
[30] = test system: Bacillus subtilis 6633; assay: MIC against human bacteria in vitro; assay type: cell-based; details: Bacillus subtilis 6633; 5% chocolated horse blood agar, 18 hours
[31] = test system: M. dispar NCTC 10125; assay: MIC against mycoplasma in vitro; assay type: cell-based; details: M. dispar NCTC 10125; 6 days, 37° C.
[32] = test system: Strep. suis (group D) SPS11; assay: MIC against veterinary bacteria in vitro; details: Strep. suis (group D) SPS11; Diagnostic Sensitivity Test Agar, 18 hours
Experimental: as §1

[33] = test system: M. hyorhinis ATCC 25021; assay: MIC against mycoplasma in vitro; assay type: cell-based; details: M. hyorhinis ATCC 25021; 6 days, 37° C.
[34] = test system: M. suipneumoniae MS 16; assay: MIC against mycoplasma in vitro; assay type: cell-based; details: M. suipneumoniae MS 16; 6 days, 37° C.

`CC(=Cc1cc(C)no1)CC1OCC(CC2OC2C(C)C(C)O)C(O)C1O` (stereo not shown) [Example 30, 3-Methyl-5-(1-normon-2-yl) isoxazole A] gave an MIC [1] of 2.5 µg/mL (≈ 6.55 µM), an MIC [2] of 128 µg/mL (≈ 336 µM) and an MIC [3] greater than 128 µg/mL. It also gave an MIC [4] of 1.25 µg/mL (≈ 3.28 µM), an MIC [5] of 8.0 µg/mL (≈ 21 µM) and an MIC [6] greater than 80 µg/mL. For the same molecule, the MIC [7] was greater than 128 µg/mL, the MIC [8] was 16 µg/mL (≈ 41.9 µM) and the MIC [9] was 2.5 µg/mL (≈ 6.55 µM). For the same molecule, the MIC [10] was 5.0 µg/mL (≈ 13.1 µM), the MIC [11] was 8.0 µg/mL (≈ 21 µM) and the MIC [12] was 10 µg/mL (≈ 26.2 µM). For the same molecule, the MIC [13] was less than 0.06 µg/mL, the MIC [14] was 5.0 µg/mL (≈ 13.1 µM) and the MIC [15] was 2.5 µg/mL (≈ 6.55 µM). The MIC [16] was 2.5 µg/mL (≈ 6.55 µM), the MIC [17] was 8.0 µg/mL (≈ 21 µM) and the MIC [18] was greater than 128 µg/mL. It also gave an MIC [19] greater than 128 µg/mL, an MIC [20] of 16 µg/mL (≈ 41.9 µM) and an MIC [21] of 40 µg/mL (≈ 105 µM). For the same molecule, the MIC [22] was greater than 128 µg/mL, the MIC [23] was 8.0 µg/mL (≈ 21 µM) and the MIC [24] was 0.25 µg/mL (≈ 0.655 µM). For the same molecule, the MIC [25] was greater than 128 µg/mL, the MIC [26] was greater than 80 µg/mL and the MIC [27] was 5.0 µg/mL (≈ 13.1 µM). For the same molecule, the MIC [28] was 32 µg/mL (≈ 83.9 µM), the MIC [29] was 1.0 µg/mL (≈ 2.62 µM) and the MIC [30] was 8.0 µg/mL (≈ 21 µM). It also gave an MIC [31] of 0.25 µg/mL (≈ 0.655 µM), an MIC [32] greater than 80 µg/mL and an MIC [33] of 0.5 µg/mL (≈ 1.31 µM). It also gave an MIC [34] of 2.5 µg/mL (≈ 6.55 µM).
